# Measurements published in ChEMBL document CHEMBL5370659 (J Med Chem, 2023).
# Calls of active or inactive are those of the source. The rule behind the calls is not given here.
# How the values were obtained:
# [1] = Plasma concentration in Sprague-Dawley rat at 50 mg/kg, po measured at 2 hrs by LC-MS/MS analysis; type: ADME, organism-based
# [2] = Toxicity in C57BL/6N mouse assessed as behavioral changes at 1.5 to 50 mg/kg, po bid treated for 6 to 7 days; type: organism-based; conditions: in vivo, dose lower 1.5 mg/kg, time lower 6 day, dose upper 50 mg/kg, time upper 7 day
# [3] = target: T1, Tryptophan 5-hydroxylase 1 (Homo sapiens, UniProt P17752); assay: Inhibition of THP1 in human serotonergic BON cells assessed as reduced the intracellular serotonin levels incubated for 72 hrs; type: cell-based
# T1 sequence (P17752 whole entry): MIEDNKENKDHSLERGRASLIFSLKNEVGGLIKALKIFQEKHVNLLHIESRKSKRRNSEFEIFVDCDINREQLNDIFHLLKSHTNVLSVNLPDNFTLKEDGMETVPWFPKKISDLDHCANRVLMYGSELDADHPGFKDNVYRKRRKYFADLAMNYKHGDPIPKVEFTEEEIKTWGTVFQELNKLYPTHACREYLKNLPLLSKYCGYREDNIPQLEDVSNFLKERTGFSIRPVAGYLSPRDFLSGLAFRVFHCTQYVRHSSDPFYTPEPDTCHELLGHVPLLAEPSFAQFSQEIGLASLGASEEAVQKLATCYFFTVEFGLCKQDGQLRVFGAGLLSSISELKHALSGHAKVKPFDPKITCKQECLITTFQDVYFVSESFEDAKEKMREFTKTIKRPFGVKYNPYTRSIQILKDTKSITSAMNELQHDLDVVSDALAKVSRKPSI
# [4] = target: Voltage-gated inwardly rectifying potassium channel KCNH2 (Homo sapiens, UniProt Q12809); assay: Inhibition of hERG channel expressed in CHO cells by whole-cell patch clamp assay; type: toxicity, cell-based
# [5] = Tlast in Sprague-Dawley rat at 20 mg/kg, po measured upto 1440 mins by LC-MS/MS analysis; type: ADME, organism-based; conditions: in vivo, 24 h
# [6] = Half life in Sprague-Dawley rat at 20 mg/kg, po measured upto 1440 mins by LC-MS/MS analysis; type: ADME, organism-based; conditions: in vivo
# [7] = Oral bioavailability in CD-1 (ICR) mouse at 50 mg/kg measured upto 1440 mins by LC-MS/MS analysis; type: ADME, organism-based; conditions: in vivo
# [8] = Half life in Sprague-Dawley rat at 50 mg/kg, po measured upto 1440 mins by LC-MS/MS analysis; type: ADME, organism-based; conditions: in vivo
# [9] = MRT (0 to infinitive) in Sprague-Dawley rat at 50 mg/kg, po measured upto 1440 mins by LC-MS/MS analysis; type: ADME, organism-based; conditions: in vivo
# [10] = Toxicity in C57BL/6N mouse subcutaneously transplanted with mouse MC-38 cells assessed as body weight change at 50 mg/kg, po bid measured on day 20; type: organism-based; conditions: in vivo, sc, 480 h, time 20 day
# [11] = Drug uptake in CD-1 (ICR) mouse brain at 50 mg/kg measured 0.5 hrs by LC-MS/MS analysis; type: ADME, organism-based; conditions: read-out: Drug uptake
# [12] = Aqueous solubility of the compound in pH 7.4 PBS buffer by HPLC-UV analysis; type: physicochemical
# [13] = target: T2, Tryptophan 5-hydroxylase 1 (Homo sapiens) (UniProt P17752); assay: Binding affinity to […] (unknown origin) assessed as association rate constant by surface plasmon resonance analysis
# T2 sequence (whole entry): T1 sequence (P17752 whole entry)
# [14] = tested on: Mus musculus; assay: Effect on C57BL/6N mouse assessed as brain serotonin turnover measuring 5-HIAA/5-HT ratio at 1.5 to 50 mg/kg, po bid treated for 6 to 7 days; type: functional, organism-based; conditions: dose 1.5-50 mg/kg, time 6-7 day
# [15] = AUCExtra in Sprague-Dawley rat at 20 mg/kg, po measured upto 1440 mins by LC-MS/MS analysis; type: ADME, organism-based; conditions: in vivo, 24 h
# [16] = Drug uptake in Sprague-Dawley rat lung at 50 mg/kg, po measured at 0.5 hrs by LC-MS/MS analysis; type: ADME, organism-based; conditions: read-out: Drug uptake
# [17] = Plasma concentration in CD-1 (ICR) mouse at 50 mg/kg measured 2 hrs by LC-MS/MS analysis; type: ADME, organism-based
# [18] = Cmax in Sprague-Dawley rat at 50 mg/kg, po measured upto 1440 mins by LC-MS/MS analysis; type: ADME, organism-based; design: time < 1440 min, dose 50 mg/kg, route po; conditions: in vivo
# [19] = AUC (0 to infinitive) in Sprague-Dawley rat at 10 mg/kg, iv measured upto 1440 mins by LC-MS/MS analysis; type: ADME, organism-based; design: dose 10 mg/kg, time < 1440 min, route iv; conditions: in vivo
# [20] = Plasma protein binding in rat; type: ADME, cell-free; conditions: read-out: PPB (converted)
# [21] = Cytotoxicity against human serotonergic BON cells assessed as cell viability at 300 uM incubated for 72 hrs by WST-1 assay; type: toxicity, cell-based
# [22] = Drug uptake in Sprague-Dawley rat brain at 20 mg/kg, po measured at 2 hrs by LC-MS/MS analysis; type: ADME, organism-based; conditions: in vivo, BLD = below limit of detection
# [23] = Substrate activity at BCRP in human Caco-2 cells seeded in polyethylene membranes at 2 uM in presence or absence of E3S incubated for 2 hrs by LC-MS/MS analysis based substrate identification assay; type: ADME, cell-based; conditions: caco-2, 2 h
# [24] = Clearance in Sprague-Dawley rat at 10 mg/kg, iv measured upto 1440 mins by LC-MS/MS analysis; type: ADME, organism-based; conditions: in vivo
# [25] = AUC (0 to infinitive) in Sprague-Dawley rat at 50 mg/kg, po measured upto 1440 mins by LC-MS/MS analysis; type: ADME, organism-based; design: dose 50 mg/kg, time < 1440 min, route po; conditions: in vivo
# [26] = Apparent permeability across basal to apical side in human Caco-2 cells at pH 6.5/7.4 measured at 5 uM by LC-MS/MS analysis; type: ADME, cell-based; conditions: Caco-2, pH 6.5
# [27] = tested on: Mus musculus; assay: Effect on total travelled distance of C57BL/6N mouse at 100 mg/kg, po treated for 14 days by locomotor activity test; type: functional, organism-based; conditions: time 14.0 day
# [28] = AUCExtra in CD-1 (ICR) mouse at 50 mg/kg, po measured upto 1440 mins by LC-MS/MS analysis; type: ADME, organism-based; conditions: in vivo, 24 h
# [29] = Plasma protein binding in human; type: ADME, cell-free; conditions: read-out: PPB (converted)
# [30] = target: Cytochrome P450 2C19 (Homo sapiens, UniProt P33261); assay: Inhibition of CYP2C19 in human liver microsome using S-mephenytoin as substrate measured upto 50 uM incubated for 10 mins followed by NADPH addition incubated for 10 mins by LC/MS/MS analysis; type: ADME; conditions: microsomes, 20 min
# [31] = Apparent permeability across apical to basal side in human Caco-2 cells at pH 6.5/7.4 measured at 5 uM by LC-MS/MS analysis; type: ADME, cell-based; conditions: Caco-2, pH 6.5
# [32] = AUMCExtra in Sprague-Dawley rat at 50 mg/kg, po measured upto 1440 mins by LC-MS/MS analysis; type: ADME, organism-based; conditions: in vivo, 24 h
# [33] = target: Cytochrome P450 2C9 (Homo sapiens, UniProt P11712); assay: Inhibition of CYP2C9 in human liver microsome using diclofenac as substrate measured upto 50 uM incubated for 10 mins followed by NADPH addition incubated for 10 mins by LC/MS/MS analysis; type: ADME; conditions: microsomes, 20 min
# [34] = Toxicity in C57BL/6N mouse assessed as general toxic effects at 1.5 to 15 mg/kg, po bid treated for 7 days; type: organism-based; conditions: in vivo, 168 h, dose 1.5-15 mg/kg, time 7 day
# Sequence of Cytochrome P450 2C19 (P33261 whole entry): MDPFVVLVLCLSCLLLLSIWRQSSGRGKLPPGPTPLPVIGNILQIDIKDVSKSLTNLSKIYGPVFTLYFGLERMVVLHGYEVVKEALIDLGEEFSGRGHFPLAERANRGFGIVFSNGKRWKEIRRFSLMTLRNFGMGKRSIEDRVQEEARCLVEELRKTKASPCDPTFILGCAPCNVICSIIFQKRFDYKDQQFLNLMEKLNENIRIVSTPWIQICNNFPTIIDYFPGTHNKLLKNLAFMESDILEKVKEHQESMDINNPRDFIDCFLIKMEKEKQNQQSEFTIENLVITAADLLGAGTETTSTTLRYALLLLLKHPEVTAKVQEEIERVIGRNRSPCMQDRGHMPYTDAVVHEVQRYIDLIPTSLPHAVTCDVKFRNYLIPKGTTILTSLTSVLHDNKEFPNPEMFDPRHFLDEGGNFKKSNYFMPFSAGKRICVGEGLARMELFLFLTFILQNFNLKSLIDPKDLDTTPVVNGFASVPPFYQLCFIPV
# Sequence of Voltage-gated inwardly rectifying potassium channel KCNH2 (Q12809 whole entry): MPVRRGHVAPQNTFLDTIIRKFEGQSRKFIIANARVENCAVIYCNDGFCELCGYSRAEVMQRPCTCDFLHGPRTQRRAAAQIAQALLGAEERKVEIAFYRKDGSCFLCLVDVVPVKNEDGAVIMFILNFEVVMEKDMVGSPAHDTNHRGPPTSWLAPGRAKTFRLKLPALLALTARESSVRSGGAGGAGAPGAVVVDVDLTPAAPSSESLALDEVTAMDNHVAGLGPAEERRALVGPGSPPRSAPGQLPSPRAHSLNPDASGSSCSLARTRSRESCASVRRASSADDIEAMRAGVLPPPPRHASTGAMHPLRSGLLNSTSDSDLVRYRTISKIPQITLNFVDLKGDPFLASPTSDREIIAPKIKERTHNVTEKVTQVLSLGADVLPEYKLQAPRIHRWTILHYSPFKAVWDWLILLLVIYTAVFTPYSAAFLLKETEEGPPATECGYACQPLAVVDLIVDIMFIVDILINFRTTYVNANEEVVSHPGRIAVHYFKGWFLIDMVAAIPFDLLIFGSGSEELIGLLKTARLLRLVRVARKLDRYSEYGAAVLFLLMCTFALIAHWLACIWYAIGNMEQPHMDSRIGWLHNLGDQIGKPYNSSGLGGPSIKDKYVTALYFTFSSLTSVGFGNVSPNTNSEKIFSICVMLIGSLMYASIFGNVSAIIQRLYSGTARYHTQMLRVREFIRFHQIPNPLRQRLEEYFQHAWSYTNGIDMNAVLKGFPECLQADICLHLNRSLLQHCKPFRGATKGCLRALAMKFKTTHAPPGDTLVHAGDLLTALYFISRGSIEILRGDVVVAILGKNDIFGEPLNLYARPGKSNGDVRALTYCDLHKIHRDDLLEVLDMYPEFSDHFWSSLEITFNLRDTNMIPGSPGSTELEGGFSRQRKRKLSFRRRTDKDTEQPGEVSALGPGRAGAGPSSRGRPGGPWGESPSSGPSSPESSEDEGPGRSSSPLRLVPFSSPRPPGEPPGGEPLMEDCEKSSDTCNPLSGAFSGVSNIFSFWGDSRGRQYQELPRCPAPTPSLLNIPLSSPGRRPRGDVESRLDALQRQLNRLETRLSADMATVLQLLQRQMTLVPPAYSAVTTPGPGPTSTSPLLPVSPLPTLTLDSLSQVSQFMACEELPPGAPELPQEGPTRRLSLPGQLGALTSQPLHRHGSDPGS
# Sequence of Cytochrome P450 2C9 (P11712 whole entry): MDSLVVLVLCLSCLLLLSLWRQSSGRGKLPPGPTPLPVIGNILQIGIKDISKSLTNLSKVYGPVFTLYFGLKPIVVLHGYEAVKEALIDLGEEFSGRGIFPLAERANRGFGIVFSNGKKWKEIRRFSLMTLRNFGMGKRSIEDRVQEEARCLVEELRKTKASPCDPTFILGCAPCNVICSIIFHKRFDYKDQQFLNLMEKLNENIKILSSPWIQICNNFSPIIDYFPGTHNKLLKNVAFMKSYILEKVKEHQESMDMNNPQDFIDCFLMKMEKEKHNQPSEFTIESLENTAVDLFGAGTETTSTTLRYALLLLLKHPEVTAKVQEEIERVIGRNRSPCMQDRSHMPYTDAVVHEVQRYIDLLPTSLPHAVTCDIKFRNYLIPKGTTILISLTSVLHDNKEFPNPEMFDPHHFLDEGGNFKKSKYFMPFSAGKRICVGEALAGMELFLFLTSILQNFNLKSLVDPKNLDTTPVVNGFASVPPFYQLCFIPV
smiles,measurement,setting,value
CCn1c(=O)[nH]c(=O)c2c1nc(Cc1cn3cc(C)sc3n1)n2CC1COC1,concentration at 2 h,[1],1370 ng/mL
same,Activity,[2],Non-Toxic
same,IC50,[3],952 nM
same,IC50,[4],> 30000 nM
same,Tlast,[5],24 h
same,half-life,[6],4.48 h
same,bioavailability,[7],41.3%
same,half-life,[8],3.41 h
same,MRT inf,[9],2.75 h
same,Activity,[10],Non-Toxic
same,concentration at 0.5 h,[11],53 ng/g
same,solubility,[12],189 µM
same,Ka,[13],2.29 10^6/M/s
same,Activity,[14],inactive
same,%AUCextra,[15],0.84%
same,concentration at 0.5 h,[16],3160 ng/g
same,concentration at 2 h,[17],1610 ng/mL
same,Cmax,[18],4100 ng/mL
same,AUC(0-inf),[19],5030 ng·h/mL
same,fraction unbound,[20],0.52
same,Activity,[21],Non-Toxic
same,Drug uptake,[22],Bld
same,Activity,[23],Not Active
same,clearance,[24],33.2 mL/min/kg
same,AUC(0-inf),[25],8220 ng·h/mL
same,Papp B→A at 5 µM,[26],23 ×10⁻⁶ cm/s
same,Activity,[27],inactive
same,%AUCextra,[28],0.552%
same,fraction unbound,[29],0.49
same,inhibition (INH),[30],Not Active
same,Papp A→B at 5 µM,[31],0.14 ×10⁻⁶ cm/s
same,AUMC,[32],4.6%
same,inhibition (INH),[33],Not Active
same,Activity,[34],Non-Toxic
